Tests used:
Assay type in all cases: cell-based
MBD3L2 RNA = experiment: RNA isolation and qPCR to determine MBD3L2 RNA levels in FSHD cells; settings: 48 hrs
Protocol: Protocol for RNA Isolation and qPCR to Determine MBD3L2 RNA Levels The protocol describes the process of isolating RNA from cultured cells, converting the RNA to complementary DNA (cDNA), and measuring target gene expression using a quantitative polymerase chain reaction (qPCR). The seed FSHD cells were dispensed into a six-well dish. One day after seeding, the DUX4 inhibitor (11 μM or 3.6 μM/well) was added to the cells. After another 48 hrs, the old media was removed from the cells. The cells were washed with 2 mL of warm phosphate buffered saline (PBS). The PBS was aspirated, and the cells were lysed in each well with 350 μL of RLT buffer+3.5 μL of beta-mercaptoethanol (BME). The lysates were added to fresh, RNAse-free, labeled Eppendorf tubes. The cells were then physically disrupted for […] at level 4 of the bead disrupter to ensure the release of the RNA. The RNA was collected according to standard procedures (i.e., Qiagen kit instructions) as discussed below. The RNA concentrations were standardized to […]. In a PCR tube, RNA (2 μg) in a new Eppendorf tube was diluted with RNase-free water to a 9.5 μL final volume of […] RNA. DNase was used to remove any DNA contamination. A DNase Master Mix was prepared from 1.5 μL/reaction DNase solution (1 unit/μL, Promega), 3 μL/reaction 5× RT buffer (i.e., 250 mM Tris-HCl (pH 8.3), 375 mM KCl, 15 mM MgCl2, and 500 μl 0.1 M DTT; Promega MMLV), and 1 μL/reaction RNase inhibitor solution (RNasin, 40 units/μL, Promega). The DNase Master Mix was added to the standardized RNA samples (5.5 μL/sample). The samples were mixed by agitation and briefly spun down by centrifuge. The samples were heated to 37° C. for 60 min, 80° C. for 5 min, and then cooled to 4° C. The samples were stored on ice until the addition of the next reagents. An RT Reaction Master Mix was prepared from 5 μL/reaction 5× RT buffer, 2 μL/reaction dNTP solution (2.5 mM in each nucleotide), 1 μL/reaction RNase inhibitor solution (RNasin, 40 units/μL, Promega), 1.6 μL/reaction M-MLV reverse transcriptase (200 units/μL, Promega), and 13.4 μL/reaction deionized, RNase-free water. The RT Reaction Master Mix was cooled on ice until use. A 50 μM solution of Random Primer 6 random hexanucleotides (2 μL) was added to each sample. The samples were mixed by agitation and briefly spun down by centrifuge. The samples were heated to 70° C. for 5 min and then cooled to 4° C. The RT Reaction Master Mix (23 μL) was added to each sample. The samples were mixed by agitation and briefly spun down by centrifuge. To convert the RNA to cDNA, the samples were heated to 42° C. for 60 min, 95° C. for 5 min, and then cooled to 4° C. The cDNA product mixture was diluted 5:1 with deionized water (40 μL+160 μL). The samples were run in triplicate, with a methyl-CpG-binding protein 3-like 2 (MBD3L2) target primer and a eukaryotic translation elongation factor 1-alpha (EEF1A) control primer. An qPCR Master Mix was prepared for each primer and stored on ice (4° C.) until use. The qPCR Master Mix included 10 μL/reaction SYBR Green Mix (2×) (ThermoFisher), 1 μL/reaction of the primer mix (i.e., the MBD3L2 PCR Primer mix or the EEF1A Primer mix), and 4 μL/reaction deionized, RNase-free water. To set up the qPCR plate, 15 μL of the appropriate qPCR Master Mix was added to the appropriate wells for each target/primer. After all the targets/primers have been added to the wells, 5 μL of the sample was added to the corresponding wells so that each well is 20 μL total. The plate was covered with a clear sheet. An qPCR run was set up (QuantStudio 5) with the following cycle: […]

[1] = Cell cytotoxicity 50 assay (CC50), HEK cells; settings: human
Protocol: (§1) Cell Cytotoxicity 50 Assay Protocol (CC50) Into a deep well block (DWB), the media for the appropriate cell line (450 μL/well) was added into wells 1-10. Into DWB well 2, 10 mM of drug solution (13.5 μL) was added, followed by an additional volume of the medium (225 μL). The well was pipetted up/down four times. A portion (225 μL) was transferred to well 3, and this process was repeated up to well 10. Using a multichannel pipet, a smaller portion (50 μL/well) was removed from all wells in the DWB and then dispensed on top of the cells in each corresponding row. After adding the drug, the plate was incubated at 37° C. for 72 h. Using a multi-channel pipet, pre-warmed cell titer glo reagent (Promega) (100 μL) was added into every well. After 5 minutes, the total luminescence was measured with a luminometer. CC50 was determined with GraphPad prism template.

[2] = Cell cytotoxicity 50 assay (CC50), MB200 cells, cell titer glo; settings: human
Protocol: as §1, with “(CC50) MB200 cells were grown until 80% confluent in F10 media supplemented with rhFGF basic (10 ng/ml), 15% fetal bovine serum, 1% penicillin streptomycin, 1% amphotericin B, and 1 μM dexamethasone. Adherent MB200 cells growing on 10 cm plate were then trypsinized with 1 ml of trypsin. Once the cells detached from the plate, F10 media (10 mL) was added, and the cells were strained through a 70 μm cell strainer. The cells were counted using a mixture of 10 μL cell suspension with 10 μL of trypan blue. Once the total number of cells were counted, a dilution of 200 k/mL was prepared, and the cells were seeded with 10 k cells/well in a 96-well plate in triplicate, making sure to avoid seeding cells in the edges of the plate to avoid edge effects. Using a multichannel pipet, the 200 k/mL cell dilution (50 μL/well) was added into wells B2-B11, C2-C11, and D2-D11 in triplicate.” for “(CC50)”

Row | SMILES | qPCR MBD3L2 Inhib at 11 µM (MBD3L2 RNA) | CC50 at 72 h [1] | CC50 at 72 h [2]
1 | O=C(CCCc1cnco1)NC1CCC(c2nc3ccccc3s2)CC1 (stereo not drawn) [Compound 67] | YES | > 10 µM | > 10 µM
2 | CC(=O)NCC(C)CC(=O)Nc1ccc(-c2nc3ccccc3s2)cc1 (stereo not drawn) [Compound 9] | YES | > 10 µM | > 10 µM
3 | O=C(CCCN1CCCC1=O)Nc1ccc(-c2nc3cc(F)ccc3s2)cc1 [Compound 116] | YES | > 10 µM | > 10 µM
4 | CC(=O)NCCCNC(=O)c1ccc(-c2nc3cc(F)ccc3s2)cc1 [Compound 74] | YES | > 10 µM | > 10 µM
5 | O=C(CCCN1C(=O)CCC1=O)NCc1ccc(-c2nc3ccccc3s2)cc1 [Compound 93] | YES | > 10 µM | > 10 µM
6 | CC(=O)NCCC(=O)Nc1ccc(-c2nc3cc(C#N)ccc3s2)cc1 [Compound 103] | YES | > 10 µM | > 10 µM
7 | CC(=O)NCCC(=O)Nc1ccc(-c2nc3cc(F)ccc3s2)cc1 [Compound 44] | YES | > 10 µM | > 10 µM
8 | Cc1ccc2nc(-c3ccc(NC(=O)C4CCC4)cc3)sc2c1 [Compound 29] | YES | > 10 µM | 1 to 10 µM
9 | CC(=O)NC(C)CCC(=O)Nc1ccc(-c2nc3ccccc3s2)cc1 (stereo not drawn) [Compound 56] | YES | > 10 µM | > 10 µM
10 | O=C(CCc1cnn[nH]1)Nc1ccc(-c2nc3ccccc3s2)cc1 [Compound 40] | YES | > 10 µM | > 10 µM
11 | O=C(CCc1cnco1)Nc1ccc(-c2nc3ccccc3s2)cc1 [Compound 33] | YES | > 10 µM | > 10 µM
12 | O=C(CCc1cnco1)Nc1ccc(-c2nc3cc(F)ccc3s2)cc1 [Compound 65] | YES | > 10 µM | > 10 µM
13 | O=C(CCc1cn[nH]c1)Nc1ccc(-c2nc3ccccc3s2)cc1 [Compound 27] | YES | > 10 µM | > 10 µM
14 | O=C(CCc1cnc[nH]1)Nc1ccc(-c2nc3ccccc3s2)cc1 [Compound 14] | YES | > 10 µM | > 10 µM
15 | O=C(CCCc1cccnc1)Nc1ccc(-c2nc3ccccc3s2)nc1 [Compound 156] | YES | > 10 µM | > 10 µM
16 | CC(=O)NCCCC(=O)Nc1ccc(-c2nc(-c3ccccc3)cs2)cc1 [Compound 130] | YES | > 10 µM | > 10 µM
17 | N#Cc1ccc2nc(-c3ccc(NC(=O)CCN4C(=O)CCC4=O)cc3)sc2c1 [Compound 54] | YES | > 10 µM | 1 to 10 µM

Row | SMILES | qPCR MBD3L2 Inhib at 11 µM (MBD3L2 RNA) | CC50 at 72 h [1] | CC50 at 72 h [2]
18 | O=C(CCCN1C(=O)CCC1=O)Nc1ccc(-c2nc3ccccc3s2)cc1 [Compound 41] | YES | > 10 µM | > 10 µM
19 | O=C(CCCc1cnco1)Nc1ccc(-c2nc3ccccc3s2)nc1 [Compound 81] | YES | > 10 µM | > 10 µM
20 | CC(=O)NCCCCC(=O)Nc1ccc(-c2nc3ccccc3s2)cc1 [Compound 73] | YES | > 10 µM | > 10 µM
21 | CC(=O)NCCCC(=O)N(C)c1ccc(-c2nc3ccccc3s2)cc1 [Compound 142] | YES | > 10 µM | > 10 µM
22 | CCC(=O)NCCCC(=O)Nc1ccc(-c2nc3ccccc3s2)cc1 [Compound 10] | YES | > 10 µM | > 10 µM
23 | CN(C(=O)CCN1C(=O)CCC1=O)c1ccc(-c2nc3ccccc3s2)cc1 [Compound 34] | YES | > 10 µM | > 10 µM
24 | CC(=O)NCCCC(=O)Nc1cnc(-c2nc3ccccc3s2)nc1 [Compound 59] | YES | > 10 µM | > 10 µM
25 | O=C(CCc1nnc[nH]1)Nc1ccc(-c2nc3ccccc3s2)cc1 [Compound 39] | YES | > 10 µM | > 10 µM
26 | CC(=O)NCCC(=O)Nc1ccc(-c2nc3cc(C)ccc3s2)cc1 [Compound 53] | YES | > 10 µM | > 10 µM
27 | O=C(CCc1cncnc1)Nc1ccc(-c2nc3ccccc3s2)cc1 [Compound 55] | YES | > 10 µM | > 10 µM
28 | O=C(CCc1cccnc1)Nc1ccc(-c2nc3ccccc3s2)nc1 [Compound 83] | YES | > 10 µM | > 10 µM
29 | CC(=O)NCCCC(=O)Nc1ccc(-c2nc3ccccc3s2)cc1 [Compound 5] | YES | > 10 µM | > 10 µM
30 | CC(=O)N[C@H]1CC[C@H](C(=O)Nc2nc3ccccc3s2)C1 [Compound 184] | YES | > 10 µM | > 10 µM
31 | O=C(CCN1C(=O)CCC1=O)Nc1ccc(-c2nc3ccccc3s2)nc1 [Compound 37] | YES | > 10 µM | > 10 µM
32 | CC(=O)NCCCC(=O)Nc1ccc(-c2nc3ccccc3s2)o1 [Compound 76] | YES | > 10 µM | > 10 µM
33 | O=C(CCCc1cccnc1)NC1CCC(c2nc3ccccc3s2)CC1 (stereo not drawn) [Compound 61] | YES | > 10 µM | > 10 µM
